Source: ChEMBL document CHEMBL1123249, “Nitrobenzyl derivatives as bioreductive alkylating agents: evidence for the reductive formation of a reactive intermediate” (1986)

Columns and labels:
Assay type in all cases: functional, Mus musculus
EMT6 [1] = assay: Compound was evaluated for its effect on survival of hypoxic EMT6 tumor cells when exposed to concentration at 10e-7 M
EMT6 [2] = assay: Compound was evaluated for its effect on survival of hypoxic EMT6 tumor cells when exposed to concentration at 10e-5 M
EMT6 [3] = assay: Compound was evaluated for its effect on survival of hypoxic EMT6 tumor cells when exposed to concentration at 10E-4 M
EMT6 [4] = assay: Compound was evaluated for its effect on survival of aerobic EMT6 tumor cells when exposed to concentration at 10e-7 M
EMT6 [5] = assay: Compound was evaluated for its effect on survival of aerobic EMT6 tumor cells when exposed to concentration at 10e-6 M
EMT6 [6] = assay: Compound was evaluated for its effect on survival of aerobic EMT6 tumor cells when exposed to concentration at 10E-5 M
EMT6 [7] = assay: Compound was evaluated for its effect on survival of hypoxic EMT6 tumor cells when exposed to concentration at 10E-6 M
EMT6 [8] = assay: Compound was evaluated for its effect on survival of aerobic EMT6 tumor cells when exposed to concentration at 10E-4 M
EMT6 [9] = assay: Compound was evaluated for its effect on survival of aerobic EMT6 tumor cells when exposed to concentration at 10E-6 M
EMT6 [10] = assay: Compound was evaluated for its effect on survival of aerobic EMT6 tumor cells when exposed to concentration at 10e-8 M
EMT6 [11] = assay: Compound was evaluated for its effect on survival of hypoxic EMT6 tumor cells when exposed to concentration at 10E-8 M

Structure (SMILES) | Surviving factor (EMT6 [1]) [%] | Surviving factor (EMT6 [2]) [%] | Surviving factor (EMT6 [3]) [%] | Surviving factor (EMT6 [4]) [%] | Surviving factor (EMT6 [5]) [%] | Surviving factor (EMT6 [6]) [%] | Surviving factor (EMT6 [7]) [%] | Surviving factor (EMT6 [8]) [%] | Surviving factor (EMT6 [9]) [%] | Surviving factor (EMT6 [10]) [%] | Surviving factor (EMT6 [11]) [%]
Nc1nc2[nH]cnc2c(=S)[nH]1 [THIOGUANINE] | 89 | 107 | 106 | 95 | 70 | 78 | 90 | 67 |  |  | 
Nc1nc(SCc2ccc([N+](=O)[O-])cc2)c2nc[nH]c2n1 |  |  | 156 |  |  |  | 137 | 78 | 106 | 79 | 102
Nc1nc(SCc2cccc([N+](=O)[O-])c2)c2[nH]cnc2n1 |  | 103 | 88 |  | 95 | 103 | 103 | 91 |  |  | 
Nc1nc(SCc2ccccc2[N+](=O)[O-])c2[nH]cnc2n1 |  |  | 85 |  |  |  | 82 | 89 | 95 | 91 | 94
